# Results from patent US11896707B2, “Cosmetic preparations comprising Daphne extracts” (ETH Zurich, priority 2018, dated 2024).
# Legend:
# [1] = tested on: LEC: lymphatic endothelial cell; test: LEC proliferation in vitro; assay type: cell-based
# Protocol: Selectivity was examined using D. giraldii extracts. D. giraldii extract (CH3OH) promoted endothelial cell proliferation in vitro. […] At least 2 independent experiments with n=5 were performed for each cell type. LEC: lymphatic endothelial cell; HDFB: human dermal fibroblast; HaCaT: immortalized human keratinocyte; BEC: blood endothelial cell.
# Daphnetoxin induced LEC proliferation most potently at 0.03 pM reaching 247±38% of control (0.1% DMSO).
# [2] = Stability test by HPLC-UV-MS analysis; assay type: physicochemical; details: storage in DMSO for one week at 50° C.
# [3] = tested on: HaCaT: immortalized human keratinocyte; test: Toxicity on HaCaT; assay type: cell-based; details: FIG. 8
# From the text: (§1) Toxicity of the extracts according to example 2 was investigated. […] (LEC: lymphatic endothelial cell; HDFB: human dermal fibroblast; HaCaT: immortalized human keratinocyte; BEC: blood endothelial cell). The results are summarized in FIG. 8 and indicate its usefulness in cosmetic applications.
# [4] = tested on: BEC: blood endothelial cell; test: Toxicity on BEC; assay type: cell-based; details: FIG. 8
# From the text: as §1
# [5] = tested on: lymphatic endothelial cell (LEC); test: Stability test: LEC sprouting activity after storage; assay type: cell-based; details: prolonged exposure at 4° C., 25° C. and 50° C. for one week
# From the text: The D. giraldii extract and daphnetoxin were subjected to stability tests.
# [6] = tested on: LEC: lymphatic endothelial cell; test: Toxicity on LEC; assay type: cell-based; details: FIG. 8
# From the text: as §1
# [7] = tested on: lymphatic endothelial cell (LEC); test: LEC sprouting assay (LEC-covered dextran beads, sprouts per bead); assay type: cell-based
# Protocol: Stimulation of the lymphatic system: Lymph vessels fulfill an important role in order to maintain the microenvironment surrounding tissue in a constant state by removing unwanted substances present in skin as well as water and protein constantly escaping from blood vessels. […] This action was tested using in vitro test methods. In particular, using a model of sprouting assay developed previously (c.f. ADD Reference SCHULZ MM ET AL., PNAS 2012: PMID 22949700), a library of plant extracts was screened for extracts inducing lymphatic endothelial cell (LEC) sprouting. The key findings were further verified and analysed to characterize the active ingredients. The advantageous effects of the plant extracts were further confirmed by conducting relevant cell proliferation assays, in vitro migration assays and LEC tube formation assays. Given the positive results in all above mentioned assays, one can deduct the positive effect of the plant extracts and the active ingredient thereof, on improving lymphatic vascular function.
# After a 24 hour incubation of fluorescently labeled LEC (lymphatic endothelial cell)-covered dextran beads with 10 pg/mL of extracts from a library of 1954 plant-derived samples, sprout formation was assessed by determining the ratio of sprouts per bead. 0.1% DMSO served as a vehicle control. Each extract was tested as 1-plicate and the entire library was screened in two independent replicates.
# Sprout formation was assessed by determining the ratio of sprouts per bead. 0.1% DMSO and VEGF-A (20 ng/mL) served as negative and positive controls respectively.
# 0.1% DMSO served as a vehicle control and VEGF-A (20 ng/mL) as a positive control.
# [8] = tested on: HDFB: human dermal fibroblast; test: Toxicity on HDFB; assay type: cell-based; details: FIG. 8
# From the text: as §1
compound,measurement,setting,value
C=C(C)[C@]12C[C@@H](C)[C@@]34OC(c5ccccc5)(O[C@@H]1[C@@H]3[C@@H]1O[C@]1(CO)[C@@H](O)[C@]1(O)C(=O)C(C)=C[C@H]14)O2 [Daphnetoxin],concentration from which LEC proliferation is significantly induced,"[1]; 6 replicates, FIG. 7B",≥ 0.003 pM
same,"LEC proliferation, specificity","[1]; Ex. 8, FIG. 8",promoted lymphatic endothelial cell proliferation specifically
same,LEC proliferation,"[1]; at 0.03 pM (most potent concentration), FIG. 7B",247±38 % of control (0.1% DMSO)
same,stability by HPLC-UV-MS analysis,[2],confirms stability
same,cytotoxic effects on HaCaT,[3],did not evoke any cytotoxic effects
same,cytotoxic effects on BEC,[4],did not evoke any cytotoxic effects
same,activity of LEC sprouting after storage,[5],consistent activity of LEC sprouting
same,cytotoxic effects on LEC,[6],did not evoke any cytotoxic effects
same,"LEC sprouting, sprouts/bead","[7]; at 100 nM, FIG. 7A",4.05 sprouts/bead
same,sprouting activity of HPLC fractions (HPLC-based activity profiling),"[7]; fraction from D. giraldii dichloromethane extract, FIG. 6",main active compound
same,concentration from which LEC sprouting is significantly induced,"[7]; further experiment, 6 replicates, FIG. 7A",≥ 10 nM
same,cytotoxic effects on HDFB,[8],did not evoke any cytotoxic effects
